The format of series [1] is in vivo, rat. As to conditions: for Oral bioavailability / absorption: rat, in vivo. Here is the method:
Thirty-two normal male SD rats were used in the experiment. Prior to treatment, all rats were fasted overnight. The treated group (n=24) received the RUS extract at a dose of 1 g/kg of body weight (0.1% w/w), and the control group (n=8) received the same volume of water via daily gavage for 3 consecutive days. All rats were given free access to food and water after the gavage. Urine was collected cumulatively for 24 hours on the third day after treatment began.

The subject of series [2] is VEGF. The experiment in a line: Western blot of HUVEC cell lysates for VEGF expression. It is filed as cell-based, human. To be noted: 24 hrs, concentrations up to about 40 μg/ml. As to the method: (§1) The HUVEC assay used human umbilical vein endothelial cells purchased from the American Type Culture Collection (ATCC # CRL-1730, Manassas, Va.). Human umbilical vein endothelial cells (HUVEC) were grown in M199 media containing 20% fetal bovine serum, 30 μg/ml endothelial cell growth supplements, 4 mM L-glutamin, 100 U/ml penicillin, and 100 μg/ml streptomycin. Cells were incubated at 37° C. in a humidified atmosphere of 5% CO2. […] Cells were then lysed with lysis buffer containing 20 mM MOPS, 2 mM EGTA, 5 mM EDTA, 30 mM NaF, 40 mM (3-glycerophosphate, 20 mM sodium pyruvate, 0.5% Triton X-100, and 1 mM sodium orthovanadate with protease inhibitor cocktail (Sigma), and the cell lysates were subjected to protein analysis and western blotting analysis to assess for VEGF (vascular endothelial growth factor), FGF or bFGF (basic fibroblast growth factor), and FLK-1 (a VEGFR2 receptor protein) using the relevant antibodies of VEFG (R&D System), bFGF (Upstate Biotechnology); FLK-1 (Santa Cruz Biotechnology). (See Ma, J. et al., “PTEN regulate angiogenesis through PI3k/AktNEGF signaling pathway in human pancreatic cancer cells,” Mol. Cell Biochem., vol. 331, pp. 161-171 (2009); and Sukhthanjar, M., et al., “A green tea component suppresses posttranslational expression of basic fibroblast growth factor in colorectal cancer. Gastroenterology,” vol. 134, pp. 1972-1980 (2008)). β-Actin was used as a quality control of the assays.

Series [3] deals with bFGF. Briefly: Western blot of HUVEC cell lysates for bFGF expression. Type of series: cell-based, human. As to conditions: 24 hrs, concentrations up to about 40 μg/ml. Here is the method: as §1
Series [4] relates to FLK-1 (a VEGFR2 receptor protein). The experiment in a line: Western blot of HUVEC cell lysates for FLK-1 expression. It is filed as cell-based, human. As to conditions: 24 hrs, concentrations up to about 40 μg/ml. Here is the method: The HUVEC assay used human umbilical vein endothelial cells purchased from the American Type Culture Collection (ATCC # CRL-1730, Manassas, Va.). Human umbilical vein endothelial cells (HUVEC) were grown in M199 media containing 20% fetal bovine serum, 30 μg/ml endothelial cell growth supplements, 4 mM L-glutamin, 100 U/ml penicillin, and 100 μg/ml streptomycin. Cells were incubated at 37° C. in a humidified atmosphere of 5% CO2. […] Cells were then lysed with lysis buffer containing 20 mM MOPS, 2 mM EGTA, 5 mM EDTA, 30 mM NaF, 40 mM (3-glycerophosphate, 20 mM sodium pyruvate, 0.5% Triton X-100, and 1 mM sodium orthovanadate with protease inhibitor cocktail (Sigma), and the cell lysates were subjected to protein analysis and western blotting analysis to assess for VEGF (vascular endothelial growth factor), FGF or bFGF (basic fibroblast growth factor), and FLK-1 (a VEGFR2 receptor protein) using the relevant antibodies of VEFG (R&D System), bFGF (Upstate Biotechnology); FLK-1 (Santa Cruz Biotechnology). (See Ma, J. et al., “PTEN regulate angiogenesis through PI3k/AktNEGF signaling pathway in human pancreatic cancer cells,” Mol. Cell Biochem., vol. 331, pp. 161-171 (2009); and Sukhthanjar, M., et al., “A green tea component suppresses posttranslational expression of basic fibroblast growth factor in colorectal cancer. Gastroenterology,” vol. […]

The mark [5] stands for this setting: rats, 24 hr urine after oral RUS 1.0 g/kg of body weight.

For `O=c1oc2c(O)c(O)cc3c(=O)oc4c(O)c(O)cc1c4c23` [ellagic acid], in series [1], the “Oral bioavailability / absorption” value is on record as “orally bioavailable”. In addition, the “Expression of VEGF” value in series [2] is listed as “inhibited the expression of VEGF in a concentration-dependent manner”. Further, the “Expression of bFGF” value in series [3] is reported as “did not suppress the expression of bFGF”.
`O=C(O)c1cc(O)c(O)c(O)c1` [gallic acid]: in series [1] (setting [5]), the “Unmetabolized compound in the urine” value turned out to be 91.7 µg and the “Unmetabolized compound in urine as % of amount orally administered” value is “about 4.5%”. For the same molecule, the “Expression of VEGF” value in series [2] is given as “inhibited the expression of VEGF in a concentration-dependent manner”. The “Expression of FLK-1” value in series [4] is recorded as “slightly reduced the expression of FLK-1”. Also, the “Expression of bFGF” value in series [3] is recorded as “did not suppress the expression of bFGF”.
Turning to `C=C1C[C@@]23CC[C@H]4[C@@](C)(CCC[C@@]4(C)C(=O)O[C@@H]4O[C@H](CO)[C@@H](O)[C@H](O)[C@H]4O)[C@@H]2CC[C@]1(O[C@@H]1O[C@H](CO)[C@@H](O)[C@H](O)[C@H]1O)C3` [rubusoside], the “Oral bioavailability / absorption” value in series [1] is recorded as “orally bioavailable”. Besides, the “Expression of VEGF” value in series [2] is “did not inhibit the expression of either bFGF or VEGF”. Further, the “Expression of FLK-1” value in series [4] was “reduced the expression of FLK-1”. Besides, the “Expression of bFGF” value in series [3] is on record as “did not inhibit the expression of either bFGF or VEGF”.

The record behind these values is patent US9072762B2, “Natural composition to decrease effects of a high fat diet” (Board of Supervisors of Louisiana State University And …, priority 2009, dated 2015).
